# Laboratory results taken from patent publication US8158577B2, “Modulation of cartilage homeostasis by active domains of cell binding extracellular matrix molecules” (priority 2004, dated 2012).
# Experiments:
# [1] = test system: IL-1 stimulated cartilage; experiment: NO release in IL-1 stimulated cartilage explants (Griess reaction); type: cell-based, bovine; settings: 400 uM peptide, IL-1a 10 ng/ml
# Description: The following experiments measure the effect of a peptide on NO release in IL-1 stimulated cartilage.
# Study design: A skinned bovine nose (from cows 18-24 months old) was collected at Hörby slaughter house (Team Ugglarp, Sweden). The septum inside the nose was cut out and the mucosa and the perichondrium was removed before the cartilage was placed in PBS with PEST (100 IU penicillin, 100 μg/ml streptomycin) and 2.5 μg/ml Fungizone (all from Invitrogen, Sweden) for 2 hours at room temperature.
# Two mm pieces were punched out of the cartilage. Each piece was placed in a 24-well cell culture plate (Falcon, Sweden) containing 1 ml cell culture medium, HAMs F12 (Invitrogen, Sweden) supplemented with 10 μg/ml BSA, […] (both from Sigma, Sweden), PEST (100 IU penicillin, […]) and 2.5 μg/ml Fungizone. After 24 hours, the medium was changed and the cartilage pieces were stimulated with human recombinant IL-1a, 10 ng/ml (Roche, Sweden). The peptides where tested in triplet at 20 and 400 μM. The cartilage tissue was incubated for another six days, mediums were exchanged every third day. On each occasion the media were collected for measurement of NO (Griess reaction).
# [2] = test system: IL-1 stimulated synoviocytes; experiment: IL-6 release in IL-1 stimulated synoviocytes (ELISA); type: cell-based, rat; settings: 50-400 μM peptide, IL-1a 50 ng/ml, 72 hour
# Description: The following experiments measure the IL-6 release in IL-1 stimulated synoviocytes.
# Study design: From rats with antigen induced arthritis, the hyperproliferative synovium, pannus, was taken from the inflamed knee day four after disease onset. The pannus tissue was cut to small pieces in PBS with PEST (100 IU penicillin, 100 μg/ml streptomycin) and Fungizone (2.5 μg/ml)(all from InVitrogen, Sweden), before incubation in collagenase (400 U/ml, Worthington, USA) for 3 hours at 37° C., 5% CO2. Cells were centrifugated (8 min., room temperature, 1100 rpm.) and suspended in RPMI 1640 supplemented with 10% FCS (InVitrogen, Sweden), PEST and Fungizone and seeded in a 25 cm^2 flask at 37° C., 5% CO2. The following day, cells were rinsed once with medium and further incubated. When confluent, cells were trypsinated for 1 min (0.25% Trypsin with EDTA, InVitrogen, Sweden) counted and seeded in 96 well plates, 10000 cells/well/200 μl.
# After 24 hours, the medium was changed and the cells were stimulated with human recombinant IL-1a, 50 ng/ml (Roche, Sweden). The peptide to be investigated was tested in triplets in the concentration interval 50-400 μM. After 72 hour incubation at 37° C., 5% CO2, the medium was collected for measurement of NO (Griess reaction) and IL-6 was analyzed by an ELISA, according to the manufacturer's instructions (BD Biosciences, USA).
# [3] = test system: m-BSA antigen induced monoarthritis in rat; experiment: In vivo antigen induced arthritis, knee-joint swelling; settings: intra-articular, twice daily
# Description: The following model experiment measure the effect of the investigated compound on knee-joint swelling using antigen induced arthritis.
# The effect of locally administered test compound, 400 mM given twice daily, on the development of arthritis in m-BSA antigen induced monoarthritis in rat was evaluated. Animals treated with saline or Methotrexate (in clinically relevant dose) were used as controls.
# Study design: Female Dark Agouti rats, weighing approximately 150 g (B&K breeding center, Denmark) were used. The animals were sensitised intradermally at the tail root with 1 mg mBSA (Sigma A-1009) dissolved in […] and emulsified in […] complete adjuvant (Sigma F 5881). Ten days later the rats were shaved (left knee) and challenged with an intraarticular (i.a) injection of […]. Test compounds were administered intra-articular (left knee) in […] four hours before challenge and thereafter twice daily. The development of arthritis (knee diameters) was registered with an odimeter/calliper. The procedures were carried out under a brief Enflurane anaesthesia. The animals were sacrificed at day 4 after challenge/first treatment.
# K105 cells = experiment: Adhesion of K105 cells to chondroadherin in the presence of synthetic peptide (FIG. 3, 5A-5B, 13); type: cell-based, human; settings: 1 hour at 37° C.
# Description: Human cells (K9) originating from a human chondrosarcoma were a kind gift from Drs. Sven Inerot and Anders Lindahl, The Salgrenska University Hospital Gothenburg, Sweden. The K9 cells were cultured in Dulbeccos Modified Eagle Medium: Nutrient Mixture F12 (DMEM/F12 1:1) with GLUTAMAX I, supplemented with 10% fetal calf serum, 25 μg/ml ascorbic acid, 50 IU of penicillin and 50 μg/ml streptomycin (Life Technologies, Inc.). A different human cells line (K105) originating from a human chondrosarcoma was a kind gift from Dr. Sven Inerot, The Salgrenska University Hospital, Gothenburg, Sweden. The K105 cells were cultured in a mix of 40% Dulbeccos Modified Eagle Medium, 40% Minimum Essential Media (MEM) alpha Medium, 10% Nutrient Mixture F1 supplemented with 100 nM hydrocortisone, 100 ng/ml insulin, 10% fetal calf serum, 25 μg/ml ascorbic acid, 50 IU of penicillin and 50 μg/ml streptomycin (Life Technologies, Inc.). To harvest cells, culture dishes were rinsed three times with Ca^2+/Mg^2+-free PBS and the cells were incubated with 0.5% trypsin and 1 mM EDTA for 5 min. Detached cells were suspended in PBS containing 1 mg/ml trypsin inhibitor (Sigma) and then washed in PBS. To remove membrane-bound collagens the cells were treated with collagenase 100 U/ml (CLSPA; Worthington Biochemical Corp., Lakewood, N.J.) in PBS, 30 min. 37° C. and then washed in PBS.
# Tissue culture 48-wells dishes (Nunclon, Nunc, Denmark) were coated overnight with 5 μg/ml chondroadherin in 4M Guanidine-HCl, 50 mM sodium acetate, pH 5.8, or for native protein in PBS. Alternatively coating was with 5 μg/ml collagen type II in PBS followed by after-coating with 0.5% BSA in PBS for 3 hours. Collagen type II was isolated from bovine nasal cartilage by pepsin digestion (11). Bacterially expressed chondroadherin was isolated as described above. Recombinant chondroadherin expressed in EBNA cell was cloned and purified as described elsewhere (8).
# To test cell binding, the chondrosarcoma cells or bovine chondrocytes were suspended in PBS containing 0.1% BSA, 25 U/ml collagenase and added to the wells (50,000/well), in the absence or presence of various peptide pools or the synthetic peptides (200, 100, 50, 25, 12.5 μg/ml). Non-adherent cells were removed after 1 hour and adhesion was determined by measuring lysosomal N-acetylglucosaminidase (12). Adhesion and spreading was visualized by light microscopy. In the time studies, k105 cells were allowed to adhere for 30 minutes, unbound cells were removed and medium without serum supplemented with or without peptides (250 μg/ml), β1 integrin antibody (clone P4C10, Gibco BRL), EDTA (5 mM) was added. Cell morphology was visualized by light microscopy after 1, 3 and 20 hours.
# Study design: Tissue culture dishes (48-wells) were coated with 5 μg/ml chondroadherin expressed in E. coli and blocked for non-specific binding with BSA. […] were suspended in PBS containing 0.1% BSA, 25 U/ml collagenase and added to the wells (50,000/well) in the presence of synthetic peptide to be tested and allowed to adhere for 1 hour at 37° C. Nonadherent cells were removed by washing, and adhesion was determined by analyzing lysosomal hexosaminidase.
# A 12-mer peptide (1947.01) plus an N-terminal cysteine (CQLRGLRRWLEAK) (SEQ ID NO. 3) representing the candidate sequence identified by mass spectrometry were synthesized and its ability to inhibit cell adhesion was determined. Tissue culture dishes were coated with 5 μg/ml chondroadherin expressed in E. coli and blocked for non-specific binding with BSA. The cells were suspended in PBS containing 0.1% BSA, 25 U/ml collagenase and added to the wells (50,000/well) in the presence of synthetic peptide (200, 100, 50, 25, 12.5 μg/ml) and allowed to adhere for 1 hour at 37° C. Nonadherent cells were removed by washing, and adhesion was determined by analyzing lysosomal hexosaminidase. […]
substance,measurement,setting,value
"H-[CQLRGLRRWLEAKASRPDATC]-OH (H-CQLRGLRRWLEAKASRPDATC-OH; also: cyclised (brackets), bond type not given here) [SEQ ID No. 9]",NO-release from IL-1 stimulated cartilage explants,[1],decrease
same,IL-6-release from IL-1 stimulated synoviocytes,[2],decrease
same,disease-ameliorating effect compared with methotrexate,[3],in the same magnitude as methotrexate treatment
same,knee-joint swelling compared with saline treated animals,[3]; 4 days,decreased
same,"inhibitory effect on K105 cell adhesion to chondroadherin (Example II, FIG. 13)",K105 cells,inhibitory effect
